Source: patent US7700602B2, “Amino-5,5-diphenylimidazolone derivatives for the inhibition of β-secretase” (Wyeth LLC, priority 2004, dated 2010)
Blank lines part the entries; values can stand above or below the compound they belong to.

Columns and labels:
[1] = molecular target: human BACE1 (Homo sapiens, UniProt P56817); assay: Fluorescent kinetic assay, inhibition of BACE1 (WABC-6 peptide substrate); type: biochemical; settings: 10 nM enzyme, 25 μM substrate WABC-6, pH 4.5, room temperature; read-out: IC50 (μM) BACE1;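 note: fluorescence monitored at 320 nm excitation and 420 nm emission every 40 s over 30 min, with the substrate cleavage rate taken from the linear slope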
[2] = molecular target: T1, human BACE2 (Homo sapiens, UniProt Q9Y5Z0); assay: Fluorescent Kinetic Assay for Human Recombinant BACE 2 (selectivity BACE1/BACE2); type: biochemical; settings: selectivity BACE1 over BACE2; 1.5 nM human BACE2, 25 μM substrate, pH 4.5;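 note: cleavage rate from the linear slope of fluorescence (excitation 320 nm, emission 420 nm) recorded every 40 s over 30 min at room temperature, sodium acetate buffer with 0.05% CHAPS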
T1 sequence (Q9Y5Z0 63-518): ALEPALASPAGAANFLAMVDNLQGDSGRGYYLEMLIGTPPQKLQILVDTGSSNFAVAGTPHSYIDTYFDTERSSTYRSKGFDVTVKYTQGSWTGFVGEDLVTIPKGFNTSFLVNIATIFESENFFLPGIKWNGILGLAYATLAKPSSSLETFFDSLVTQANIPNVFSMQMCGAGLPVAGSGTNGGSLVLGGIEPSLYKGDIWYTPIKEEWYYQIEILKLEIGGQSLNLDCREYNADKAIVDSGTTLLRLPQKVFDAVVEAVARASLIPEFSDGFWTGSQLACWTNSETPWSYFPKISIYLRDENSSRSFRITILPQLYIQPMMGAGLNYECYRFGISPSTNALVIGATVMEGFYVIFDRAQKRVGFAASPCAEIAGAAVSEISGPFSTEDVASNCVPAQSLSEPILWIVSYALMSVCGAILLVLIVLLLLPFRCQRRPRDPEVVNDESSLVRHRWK

human BACE1, sequence (P56817 46-501): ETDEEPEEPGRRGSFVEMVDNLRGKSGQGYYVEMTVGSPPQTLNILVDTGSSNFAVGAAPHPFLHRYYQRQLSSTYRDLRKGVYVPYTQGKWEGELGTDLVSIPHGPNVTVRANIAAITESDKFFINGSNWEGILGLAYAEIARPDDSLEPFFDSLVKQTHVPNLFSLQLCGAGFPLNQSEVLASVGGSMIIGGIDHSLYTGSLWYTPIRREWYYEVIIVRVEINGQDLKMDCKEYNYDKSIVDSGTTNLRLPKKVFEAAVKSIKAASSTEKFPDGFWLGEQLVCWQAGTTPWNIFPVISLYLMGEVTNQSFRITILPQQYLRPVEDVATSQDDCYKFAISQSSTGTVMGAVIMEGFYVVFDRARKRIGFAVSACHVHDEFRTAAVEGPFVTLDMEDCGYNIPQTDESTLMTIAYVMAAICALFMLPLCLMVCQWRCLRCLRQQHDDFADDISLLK

Compound: CCCNC1=NC(c2cccc(-c3cncnc3)c2)(c2ccc(OCCC)c(C)c2)C(=O)N1C (stereo not drawn)
- melting point: 64 to 66 °C

Compound: COc1cc(C2(c3cccc(-c4cccnc4)c3)N=C(N)N(C)C2=O)cc(OC)c1OC (stereo not drawn) [Example 23]
- IC50 [1]: 0.01 to 0.1 µM
- melting point: 104 to 107 °C
- BACE1/BACE2 selectivity [2]: II (II = 10-100-fold selectivity)

Compound: CN1C(=O)C(c2cccc(OC(F)(F)F)c2)(c2cccc(-c3cccnc3)c2)N=C1N (stereo not drawn) [Example 25]
- IC50 [1]: 0.01 to 0.1 µM
- melting point: 198 °C
- BACE1/BACE2 selectivity [2]: II (II = 10-100-fold selectivity)

Compound: CN1C(=O)C(c2cccc(-c3cccnc3)c2)(c2ccc(OC(F)(F)F)c(C(F)(F)F)c2)N=C1N (stereo not drawn) [Example 26]
- IC50 [1]: 0.01 to 0.1 µM
- melting point: 98 °C
- BACE1/BACE2 selectivity [2]: II (II = 10-100-fold selectivity)

Compound: CCOc1ccc(C2(c3ccc(F)c(-c4cccnc4)c3)N=C(N)N(C)C2=O)cc1OCC (stereo not drawn) [Example 27]
- IC50 [1]: 0.01 to 0.1 µM
- melting point: 99 to 100 °C
- BACE1/BACE2 selectivity [2]: II (II = 10-100-fold selectivity)

Compound: COc1ccc(C2(c3cccc(-c4ccncc4)c3)N=C(N)N(C)C2=O)cc1C (stereo not drawn) [Example 36, 2-Amino-5-(4-methoxy-3-methylphenyl)-3-methyl-5-(3-pyridin-4-ylphenyl)-3,5-dihydro-4H-imidazol-4-one]
- IC50 [1]: 0.01 to 0.1 µM
- melting point: 175 °C
- BACE1/BACE2 selectivity [2]: III (III = <10-fold selectivity)

Compound: CN1C(=O)C(c2ccc(OC(F)(F)F)c(F)c2)(c2ccc(F)c(-c3cncc(Cl)c3)c2)N=C1N (stereo not drawn) [Example 42]
- IC50 [1]: 0.11 to 1 µM
- melting point: 201 to 203 °C
- BACE1/BACE2 selectivity [2]: II (II = 10-100-fold selectivity)

Compound: CCOc1ccc(C2(c3cccc(-c4cncnc4)c3)N=C(N)N(C)C2=O)cc1OCC (stereo not drawn) [Example 44]
- IC50 [1]: 0.01 to 0.1 µM
- melting point: 100 to 105 °C
- BACE1/BACE2 selectivity [2]: II (II = 10-100-fold selectivity)

Compound: CN1C(=O)C(c2ccc(OC(F)(F)F)cc2)(c2ccc(Cl)c(-c3cncnc3)c2)N=C1N (stereo not drawn) [Example 49]
- IC50 [1]: 0.11 to 1 µM
- melting point: 124 to 129 °C
- BACE1/BACE2 selectivity [2]: I (I = >100-fold selectivity)

Compound: COc1cncc(-c2cccc(C3(c4ccc(OC(F)(F)F)cc4)N=C(N)N(C)C3=O)c2)c1 (stereo not drawn) [Example 51]
- IC50 [1]: 0.01 to 0.1 µM
- melting point: 212 °C
- BACE1/BACE2 selectivity [2]: III (III = <10-fold selectivity)

Compound: COc1ccc(C2(c3ccc(F)c(-c4cncnc4)c3)N=C(N)N(C)C2=O)cc1C(F)(F)F (stereo not drawn) [Example 56]
- IC50 [1]: 0.01 to 0.1 µM
- melting point: 115 °C
- BACE1/BACE2 selectivity [2]: I (I = >100-fold selectivity)

Compound: CCOc1ccc(C2(c3ccc(F)c(-c4cncnc4)c3)N=C(N)N(C)C2=O)cc1OCC (stereo not drawn) [Example 86]
- IC50 [1]: 0.01 to 0.1 µM
- melting point: 95 to 98 °C
- BACE1/BACE2 selectivity [2]: I (I = >100-fold selectivity)

Compound: CN1C(=O)C(c2ccc(SC(F)(F)F)cc2)(c2ccc(F)c(-c3cncnc3)c2)N=C1N (stereo not drawn) [Example 94]
- IC50 [1]: 0.11 to 1 µM
- melting point: 183 °C
- BACE1/BACE2 selectivity [2]: II (II = 10-100-fold selectivity)

Compound: CCOc1ccc(C2(c3ccc(F)c(-c4cccnc4)c3)N=C(N)N(C)C2=O)cc1OCC (stereo not drawn) [Example 99]
- IC50 [1]: 0.01 to 0.1 µM
- melting point: 93 to 95 °C
- BACE1/BACE2 selectivity [2]: III (III = <10-fold selectivity)

Compound: CN1C(=O)C(c2ccc(OCCF)c(OCCF)c2)(c2ccc(F)c(-c3cccnc3F)c2)N=C1N (stereo not drawn) [Example 104, 2-Amino-5-[3,4-bis-(2-fluoro-ethoxy)-phenyl]-5-[4-fluoro-3-(2-fluoro-pyridin-3-yl)-phenyl]-3-methyl-3,5-dihydro-imidazol-4-one]
- IC50 [1]: 0.01 to 0.1 µM
- melting point: 85 to 95 °C
- BACE1/BACE2 selectivity [2]: II (II = 10-100-fold selectivity)

Compound: CN1C(=O)C(c2ccc(OCCF)cc2)(c2cccc(-c3ccc(F)nc3)c2)N=C1N (stereo not drawn) [Example 111]
- IC50 [1]: 0.11 to 1 µM
- melting point: 100 °C
- BACE1/BACE2 selectivity [2]: III (III = <10-fold selectivity)

Compound: Cc1cc(C2(c3ccc(F)c(-c4cccnc4F)c3)N=C(N)N(C)C2=O)ccc1OCCF (stereo not drawn) [Example 112]
- IC50 [1]: 0.01 to 0.1 µM
- melting point: 105 to 106 °C
- BACE1/BACE2 selectivity [2]: II (II = 10-100-fold selectivity)

Compound: Cc1cc(C2(c3ccc(F)c(-c4cncnc4)c3)N=C(N)N(C)C2=O)ccc1OCCF (stereo not drawn) [Example 113]
- IC50 [1]: 0.01 to 0.1 µM
- melting point: 108 to 110 °C
- BACE1/BACE2 selectivity [2]: I (I = >100-fold selectivity)

Compound: Cc1cc(C2(c3cccc(-c4cncnc4)c3)N=C(N)N(C)C2=O)ccc1OCc1ccccc1 (stereo not drawn) [Example 114]
- IC50 [1]: 0.01 to 0.1 µM
- melting point: 107 to 109 °C
- BACE1/BACE2 selectivity [2]: II (II = 10-100-fold selectivity)

Compound: Cc1cc(C2(c3cccc(-c4cncnc4)c3)N=C(N)N(C)C2=O)ccc1O (stereo not drawn) [Example 115]
- IC50 [1]: 0.01 to 0.1 µM
- melting point: 168 to 170 °C
- BACE1/BACE2 selectivity [2]: II (II = 10-100-fold selectivity)

Compound: Cc1cc(C2(c3cccc(-c4cncnc4)c3)N=C(N)N(C)C2=O)ccc1OCCF (stereo not drawn) [Example 116]
- IC50 [1]: 0.01 to 0.1 µM
- melting point: 108 to 110 °C
- BACE1/BACE2 selectivity [2]: II (II = 10-100-fold selectivity)

Compound: Cc1cc(C2(c3cccc(-c4cncnc4)c3)N=C(N)N(C)C2=O)ccc1OCC#N (stereo not drawn) [Example 117]
- IC50 [1]: 0.01 to 0.1 µM
- melting point: 220 to 222 °C
- BACE1/BACE2 selectivity [2]: II (II = 10-100-fold selectivity)

Compound: Cc1cc(C2(c3cccc(-c4cncnc4)c3)N=C(N)N(C)C2=O)ccc1O[C@H](C)c1ccccc1 (stereo partly drawn) [Example 131, 2-amino-3-methyl-5-{3-methyl-4-[(1R)-1-phenylethoxy]phenyl}-5-(3-pyrimidin-5-ylphenyl)-3,5-dihydro-4H-imidazol-4-one]
- IC50 [1]: 0.01 to 0.1 µM
- melting point: 112 to 114 °C

Compound: CN1CC(c2ccc(OC(F)(F)F)cc2)(c2ccc(F)c(-c3cccnc3F)c2)N=C1N (stereo not drawn) [Example 144, 4-[4-Fluoro-3-(2-fluoropyridin-3-yl)phenyl]-1-methyl-4-(4-trifluoromethoxyphenyl)-4,5-dihydro-1H-imidazol-2-ylamine]
- IC50 [1]: 0.11 to 1 µM
- BACE1/BACE2 selectivity [2]: I (I = >100-fold selectivity)

Further lines, results first:

- IC50 [1]: 0.01 to 0.1 µM
- melting point: 99 to 102 °C
- BACE1/BACE2 selectivity [2]: II (II = 10-100-fold selectivity)
Compound: CN1C(=O)C(c2ccc(OC(F)(F)F)c(Cl)c2)(c2ccc(F)c(-c3cccnc3)c2)N=C1N (stereo not drawn) [Example 28]

- IC50 [1]: 0.11 to 1 µM
- melting point: 241 to 243 °C
- BACE1/BACE2 selectivity [2]: II (II = 10-100-fold selectivity)
Compound: CN1C(=O)C(c2ccc(OC(F)(F)F)cc2)(c2ccc(F)c(-c3cncc(Cl)c3)c2)N=C1N (stereo not drawn) [Example 46]

- IC50 [1]: 0.11 to 1 µM
- melting point: 216 to 218 °C
- BACE1/BACE2 selectivity [2]: II (II = 10-100-fold selectivity)
Compound: CN1C(=O)C(c2ccc(OC(F)(F)F)cc2)(c2ccc(F)c(-c3cncc(F)c3)c2)N=C1N (stereo not drawn) [Example 47]

- IC50 [1]: 0.01 to 0.1 µM
- melting point: 134 °C
- BACE1/BACE2 selectivity [2]: II (II = 10-100-fold selectivity)
Compound: CN1C(=O)C(c2ccc(OC(F)(F)F)cc2)(c2ccc(F)c(-c3cccnc3)c2)N=C1N (stereo not drawn) [Example 50]

- IC50 [1]: 0.01 to 0.1 µM
- melting point: 95 °C
- BACE1/BACE2 selectivity [2]: II (II = 10-100-fold selectivity)
Compound: CN1C(=O)C(c2ccc(SC(F)(F)F)cc2)(c2ccc(F)c(-c3cccnc3F)c2)N=C1N (stereo not drawn) [Example 93]

- IC50 [1]: 0.01 to 0.1 µM
- melting point: 104 to 106 °C
- BACE1/BACE2 selectivity [2]: II (II = 10-100-fold selectivity)
Compound: CN1C(=O)C(c2ccc(OC(F)F)cc2)(c2ccc(F)c(-c3cccnc3)c2)N=C1N (stereo not drawn) [Example 95]

- IC50 [1]: 0.01 to 0.1 µM
- melting point: 108 to 110 °C
- BACE1/BACE2 selectivity [2]: II (II = 10-100-fold selectivity)
Compound: CN1C(=O)C(c2ccc(OC(F)F)cc2)(c2ccc(F)c(-c3cccnc3F)c2)N=C1N (stereo not drawn) [Example 96]

- IC50 [1]: 0.01 to 0.1 µM
- melting point: 103 to 105 °C
- BACE1/BACE2 selectivity [2]: II (II = 10-100-fold selectivity)
Compound: CN1C(=O)C(c2ccc(OC(F)F)cc2)(c2ccc(F)c(-c3cncnc3)c2)N=C1N (stereo not drawn) [Example 97]

- IC50 [1]: 0.01 to 0.1 µM
- melting point: 135 °C
- BACE1/BACE2 selectivity [2]: II (II = 10-100-fold selectivity)
Compound: CN1C(=O)C(c2ccc(OCCF)cc2)(c2ccc(F)c(-c3cccnc3F)c2)N=C1N (stereo not drawn) [Example 108, 2-Amino-5-[4-(2-fluoroethoxy)phenyl]-5-[4-fluoro-3-(2-fluoropyridin-3-yl)phenyl]-3-methyl-3,5-dihydro-4H-imidazol-4-one]

- IC50 [1]: 0.01 to 0.1 µM
- melting point: 123 °C
- BACE1/BACE2 selectivity [2]: II (II = 10-100-fold selectivity)
Compound: CN1C(=O)C(c2ccc(OCCF)cc2)(c2ccc(F)c(-c3cncnc3)c2)N=C1N (stereo not drawn) [Example 109]

- IC50 [1]: > 1 µM
- BACE1/BACE2 selectivity [2]: III (III = <10-fold selectivity)
Compound: COc1ccc([C@@]2(c3ccc(F)c(-c4cnccc4F)c3)N=C(N)N(C)C2=O)cc1 [Example 143A, (5S)-2-Amino-5-[4-fluoro-3-(4-fluoropyridin-3-yl)phenyl]-5-(4-methoxyphenyl)-3-methyl-3,5-dihydro-4H-imidazol-4-one]

- IC50 [1]: 0.01 to 0.1 µM
- BACE1/BACE2 selectivity [2]: II (II = 10-100-fold selectivity)
Compound: COc1ccc([C@]2(c3ccc(F)c(-c4cnccc4F)c3)N=C(N)N(C)C2=O)cc1 [Example 143B, (5R)-2-Amino-5-[4-fluoro-3-(4-fluoropyridin-3-yl)phenyl]-5-(4-methoxyphenyl)-3-methyl-3,5-dihydro-4H-imidazol-4-one]
